# Test results reported in patent US10633389B2, “CARM1 inhibitors and uses thereof” (Epizyme, Inc., priority 2013, dated 2020).
# System: asymmetric di-methyl PABP1 in RKO cells
# Test: RKO methylation assay, In Cell Western (ICW) for asymmetric di-methyl PABP1
# Format: cell-based
# Details: Homo sapiens, RKO, Cellular potencies, ICW PABP1me2a
# In short: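 In-cell Western on fixed RKO cells after 48 h compound exposure: anti-asymmetric di-methyl PABP1 signal at 800 nm over DRAQ5 DNA signal at 700 nm. Percent inhibition set between DMSO wells and wells with 20 μM reference compound; IC50 curves fitted in triplicate.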
row,SMILES,IC50 [µM]
1,CNCC(O)COc1cccc(-c2nc(-c3cc4ccccc4o3)cc(N(C)C3CCOCC3)n2)c1 (centres unmarked) [Example 570-1a],10 to 20
2,CNCC(O)COc1cccc(-c2nc(Nc3cnc(C)nc3)cc(-c3c(C)noc3C)n2)c1 (centres unmarked) [Example 49-1a],5 to 10
3,CNCC(O)COc1cc(Cl)cc(-c2nc(C(=O)OC)cc(N(C)C3CCOCC3)n2)c1 (centres unmarked) [Example 623-1a],10 to 20
4,CNCC(O)COc1cccc(-c2nc(-c3c(C)noc3C)cc(N(C)c3cnc(C)nc3)n2)c1 (centres unmarked) [Example 61-1a],10 to 20
5,CNCC(O)COc1cccc(-c2nc(N(C)C3CCOCC3)cc(-n3cccn3)n2)c1 (centres unmarked) [Example 542-1a],10 to 20
6,CNCC(O)COc1cccc(-c2nc(-c3cncnc3)cc(N(C)C3CCOCC3)n2)c1 (centres unmarked) [Example 525-1a],5 to 10
7,CNC[C@@H](O)COc1ccc(Cl)c(-c2nc(-c3c(C)noc3C)c(C)c(N3CCOC3=O)n2)c1 [Example 187-3],10 to 20
8,CNCC(O)COc1cccc(-c2nc(N[C@@H]3CCOC3)c(C)c(N3C[C@H]4CNC[C@H]4C3)n2)c1 (some centres unmarked) [Example 440-1a],10 to 20
9,CNCC(O)COc1cccc(-c2nc(N[C@@H]3CCOC3)c(C)c(N3CC[C@@H](OC)C3)n2)c1 (some centres unmarked) [Example 369-1a],10 to 20
10,CNCC(O)COc1cccc(-c2nc(-c3ccc(N4CCOCC4)nn3)cc(N(C)C3CCOCC3)n2)c1 (centres unmarked) [Example 512-1a],5 to 10
11,CNCC(O)COc1cccc(-c2nc(NC3CCOC3)cc(-c3c(C)noc3C)n2)c1 (centres unmarked) [Example 31-1a],5 to 10
12,CNCC(O)COc1cccc(-c2nc(N[C@@H]3CCOC3)c(C)c(N3CCC4(CC3)CNC(=O)C4)n2)c1 (some centres unmarked) [Example 424-1a],10 to 20
13,CNCC(O)COc1cccc(-c2nc(NC3CCS(=O)(=O)CC3)c(C)c(-c3c(C)noc3C)n2)c1 (centres unmarked) [Example 59-1a],10 to 20
14,CNCC(O)COc1cc(Cl)cc(-c2nc(NC3CCOCC3)cc(-c3c(C)noc3C)n2)c1 (centres unmarked) [Example 7-1a],10 to 20
15,CNCC(O)COc1cccc(-c2nc(NCCCCl)c(C)c(N[C@@H]3CCOC3)n2)c1 (some centres unmarked) [Example 366-1a],10 to 20
16,CNCC(O)COc1cccc(-c2nc(NC3C[C@@H](O)[C@H](O)C3)c(C)c(-c3c(C)noc3C)n2)c1 (some centres unmarked) [Example 280-1a],10 to 20
17,CNC[C@H](O)COc1ccc(F)c(-c2nc(-c3c(C)noc3C)c(C)c(N3CCC4(CCN(C(=O)OC)C4)C3)n2)c1 (some centres unmarked) [Example 106-3],< 5

row,SMILES,IC50 [µM]
1,CNCC(O)COc1cc(Cl)cc(-c2nc(Nc3cncnc3)cc(-c3c(C)noc3C)n2)c1 (centres unmarked) [Example 9-1a],5 to 10
2,CNC[C@@H](O)COc1ccc(Cl)c(-c2nc(-c3c(C)noc3C)c(C)c(N3CC(F)C3)n2)c1 [Example 206-3],< 5
3,CNC[C@@H](O)COc1ccc(Cl)c(-c2nc(N[C@H]3CO[C@@H](C)C3)c(Cl)c(-c3c(C)noc3C)n2)c1 [Example 148-3],< 5
4,CNCC(O)COc1cccc(-c2nc(NC3CC3)c(C)c(-c3c(C)noc3C)n2)c1 (centres unmarked) [Example 293-1a],< 5
5,CNCC(O)COc1cc(Cl)cc(-c2nc(NC3CCN(C4CC4)CC3)c(C)c(-c3c(C)noc3C)n2)c1 (centres unmarked) [Example 22-3],< 5
6,CNCC(O)COc1cccc(-c2nc(-c3cnc4c(C(=O)N(C)C)cnn4c3)cc(N(C)C3CCOCC3)n2)c1 (centres unmarked) [Example 514-1a],5 to 10
7,CNCC(O)COc1cccc(-c2nc(N[C@H]3COC(=O)C3)c(C)c(-c3c(C)noc3C)n2)c1 (some centres unmarked) [Example 267-1a],10 to 20
8,CNCC(O)COc1ccc(Cl)c(-c2nc(NC3CCOCC3)c(C)c(-c3c(C)nsc3C)n2)c1 (centres unmarked) [Example 97-3],< 5
9,CNCC(O)COc1cccc(-c2nc(-c3c(C)noc3C)cc(-c3c(C)noc3C)n2)c1 (centres unmarked) [Example 3-1a],10 to 20
10,CNCC(O)COc1cccc(-c2nc(-c3c(C)noc3C)c(C)c(N3CCO[C@@H](CN(C)S(C)(=O)=O)C3)n2)c1 (some centres unmarked) [Example 150-1a],5 to 10
11,CCS(=O)(=O)N1CCOC[C@@H]1CNc1nc(-c2cccc(OCC(O)CNC)c2)nc(-c2c(C)noc2C)c1C (some centres unmarked) [Example 230-1a],< 5
12,CNCC(O)COc1cccc(-c2nc(NC3CCOCC3)cc(-c3ccc(OC)c(OC)c3)n2)c1 (centres unmarked) [Example 658-1a],≥ 20
13,CNCC(O)COc1cccc(-c2nc(N[C@@H]3CCOC3)c(C)c(N3CCC4(CCNCC4)CC3)n2)c1 (some centres unmarked) [Example 429-1a],10 to 20
14,CNCC(O)COc1cccc(-c2nc(-c3ccnc(C#N)c3)cc(N(C)C3CCOCC3)n2)c1 (centres unmarked) [Example 498-1a],< 5
15,CNCC(O)COc1cc(Cl)cc(-c2nc(N[C@@H]3CCOC3)cc(-c3c(C)noc3C)n2)c1 (some centres unmarked) [Example 10-1a],10 to 20
16,CNCC(O)COc1cc(Cl)cc(-c2nc(N(C)C3CCOCC3)c(C)c(-n3cccn3)n2)c1 (centres unmarked) [Example 618-1a],10 to 20
17,CNC[C@@H](O)COc1ccc(Cl)c(-c2nc(N[C@H]3CCN(C)C[C@H]3F)c(Cl)c(-c3c(C)noc3C)n2)c1 [Example 208-3],< 5

# The remaining lines, values ahead:
row,IC50 [µM],SMILES
1,< 5,CNCC(O)COc1cccc(-c2nc(NCC3(OC)CCOCC3)c(C)c(-c3c(C)noc3C)n2)c1 (centres unmarked) [Example 300-1a]
2,< 5,CNC[C@@H](O)COc1ccc(F)c(-c2nc(-c3c(C)noc3C)c(C)c(N3Cc4cccc(F)c4C3)n2)c1 [Example 266-3]
3,< 5,CNCC(O)COc1cccc(-c2nc(-c3c(C)noc3C)c(C)c(N3CCOC(C)(C)C3)n2)c1 (centres unmarked) [Example 200-1a]
4,< 5,CNCC(O)COc1ccc(Cl)c(-c2nc(NC[C@H]3COCCN3C3COC3)c(C)c(-c3c(C)noc3C)n2)c1 (some centres unmarked) [Example 2-3]
5,< 5,CNCC(O)COc1cccc(-c2nc(OCC3CCN(C(=O)N(C)C)CC3)c(C)c(-c3c(C)noc3C)n2)c1 (centres unmarked) [Example 285-1a]
6,< 5,CNC[C@@H](O)COc1ccc(Cl)c(-c2nc(NC3CC(COC)C3)c(C)c(-c3c(C)noc3C)n2)c1 (some centres unmarked) [Example 219-3]
7,< 5,CNCC(O)COc1cccc(-c2nc(-c3c(C)noc3C)c(C)c(N(C)C3CCOCC3)n2)c1 (centres unmarked) [Example 34-1a]
8,< 5,CCOC(=O)N1CCC2(CC1)CN(c1nc(-c3cc(OC[C@H](O)CNC)ccc3F)nc(-c3c(C)noc3C)c1C)C2 [Example 282-3]
9,< 5,CNCC(O)COc1cccc(-c2nc(-c3c(C)noc3C)cc(N(C)C3CCOCC3)n2)c1 (centres unmarked) [Example 1-1a]
10,< 5,CNCC(O)COc1cccc(-c2nc(N[C@@H]3CCOC3)c(C)c(N3CCN(CC(F)F)[C@H](C)C3)n2)c1 (some centres unmarked) [Example 471-1a]
11,< 5,CNC[C@@H](O)COc1ccc(Cl)c(-c2nc(-c3c(C)noc3C)c(C)c(N3CCC3)n2)c1 [Example 238-3]
12,< 5,CNC[C@@H](O)COc1ccc(Cl)c(-c2nc(N[C@@H]3CCO[C@H](C)C3)c(C)c(-c3c(C)noc3C)n2)c1 [Example 132-3]
13,< 5,Cc1noc(C)c1-c1nc(-c2cccc(OCC(O)CN)c2)nc(NC2CCOCC2)c1C (centres unmarked) [Example 54-1a]
14,< 5,CNCC(O)COc1cccc(-c2nc(-c3c(C)noc3C)c(C)c(N3CC[C@H](N(C)C(C)=O)C3)n2)c1 (some centres unmarked) [Example 71-1a]
15,< 5,CNCC(O)COc1cccc(-c2nc(NCC3CCN(C4COC4)CC3)c(C)c(-c3c(C)noc3C)n2)c1 (centres unmarked) [Example 262-1a]
16,< 5,CNCC(O)COc1cccc(-c2nc(-c3c(C)noc3C)cc(N3CCN(S(C)(=O)=O)[C@@H](C)C3)n2)c1 (some centres unmarked) [Example 92-1a]
17,< 5,CCC1(CNc2nc(-c3cccc(OCC(O)CNC)c3)nc(-c3c(C)noc3C)c2C)CCOCC1 (centres unmarked) [Example 141-1a]

row,IC50 [µM],SMILES
1,< 5,CNCC(O)COc1cccc(-c2nc(NCC3CN(C)CCO3)c(C)c(-c3c(C)noc3C)n2)c1 (centres unmarked) [Example 171-1a]
2,< 5,CNC[C@@H](O)COc1ccc(F)c(-c2nc(-c3c(C)noc3C)c(C)c(N3Cc4cc(Cl)cnc4C3)n2)c1 [Example 185-3]
3,< 5,CNC[C@H](O)COc1ccc(F)c(-c2nc(NC3CCOC(C)C3)c(C)c(-c3c(C)noc3C)n2)c1 (some centres unmarked) [Example 73-3]
4,< 5,CNCC(O)COc1cccc(-c2nc(NC3CCC[C@H]3O)c(C)c(-c3c(C)noc3C)n2)c1 (some centres unmarked) [Example 219-1a]
5,< 5,CNC[C@@H](O)COc1ccc(Cl)c(-c2nc(-c3c(C)noc3C)c(C)c(N3Cc4cnc(C(F)(F)F)nc4C3)n2)c1 [Example 263-3]
6,< 5,CCOC(=O)N1CCN(c2nc(-c3cccc(OCC(O)CNC)c3)nc(N[C@@H]3CCOC3)c2C)CC1 (some centres unmarked) [Example 456-1a]
7,< 5,CCOC(=O)N1CCC[C@@H]1CNc1nc(-c2cc(OC[C@@H](O)CNC)ccc2Cl)nc(-c2c(C)noc2C)c1C [Example 49-3]
8,< 5,CNCC(O)COc1ccc(Cl)c(-c2nc(NC3CCN(C(=O)OC)CC3)c(Cl)c(-c3c(C)noc3C)n2)c1 (centres unmarked) [Example 187-1a]
9,< 5,CCOC(=O)N1CCOC[C@@H]1CNc1nc(-c2cc(OC[C@H](O)CNC)ccc2Cl)nc(-c2c(C)noc2C)c1Cl [Example 56-3]
10,< 5,CNC[C@H](O)COc1ccc(Cl)c(-c2nc(N[C@H]3C[C@H](OC)C3)c(C)c(-c3c(C)noc3C)n2)c1 [Example 53-3]
11,< 5,CNC[C@H](O)COc1ccc(Cl)c(-c2nc(-c3c(C)noc3C)c(C)c(N3Cc4cccnc4C3)n2)c1 [Example 92-3]
12,< 5,CCO[C@H]1CCC[C@H]1Nc1nc(-c2cc(OC[C@H](O)CNC)ccc2Cl)nc(-c2c(C)noc2C)c1C [Example 242-3]
13,< 5,CNC[C@@H](O)COc1ccc(Cl)c(-c2nc(-c3c(C)noc3C)c(Cl)c(N3Cc4ccncc4C3)n2)c1 [Example 214-3]
14,< 5,CNCC(O)COc1cccc(-c2nc(NC3C4COCC43)c(C)c(-c3c(C)noc3C)n2)c1 (centres unmarked) [Example 212-1a]
15,< 5,CNC[C@H](O)COc1ccc(F)c(-c2nc(N[C@H]3CCN(C4CC4)C[C@H]3F)c(C)c(-c3c(C)noc3C)n2)c1 [Example 99-3]
16,< 5,CNC[C@@H](O)COc1ccc(Cl)c(-c2nc(N[C@@H]3CCN(C4CC4)C[C@@H]3F)c(C)c(-c3c(C)noc3C)n2)c1 [Example 167-3]
17,< 5,CNC[C@@H](O)COc1ccc(Cl)c(-c2nc(N[C@H]3CCN(C4CC4)[C@@H](C)C3)c(C)c(-c3c(C)noc3C)n2)c1 [Example 170-3]
